The text below walks through data of ChEMBL document CHEMBL1955861, “Aminoimidazoles as BACE-1 inhibitors: the challenge to achieve in vivo brain efficacy” (Bioorg Med Chem Lett, 2012).

Each structure is given as a SMILES string.

A short description of data set [1]: Dissociation constant, pKa of the compound. The format is physicochemical.
The nature of data set [2]: Ratio of drug level in brain to plasma in C57BL/6 mouse at 300 umol/kg, po administered as single dose measured after […] by RPLC-MS/MS analysis. The format is ADME, organism-based. The conditions noted are these: read-out: BPR.
Data set [3] can be described thus: Ratio of drug level in brain to plasma in C57BL/6 mouse at 300 umol/kg, po administered as single dose 15 mins after GF120918 90 umol/kg, po measured after […] by RPLC-MS/MS analysis. The conditions noted are these: with GF120918 90 umol/kg po, read-out: BPR. The format is ADME, organism-based.
Data set [4] in a line: Drug uptake in C57BL/6 mouse brain at 300 umol/kg, po administered as single dose 15 mins after GF120918 90 umol/kg, po measured after […] by RPLC-MS/MS analysis. The note with it: with GF120918 90 umol/kg po, read-out: Drug uptake. The format is ADME, organism-based.

With `NC1=NC(c2ccncc2)(c2cccc(-c3cncnc3)c2)C2=NCCCN12` (centres undefined), in data set [1], the pKa – broadly, the negative logarithm of the acid dissociation constant – came to 7.6. The same measure, in the same setting: with `COc1cccc(-c2cccc([C@]3(c4ccncc4)N=C(N)N4CC(F)(F)CN=C43)c2)c1F` the figure was 5.3; with `COc1ccc(C2(c3cccc(-c4cncnc4)c3)N=C(N)N3CC(F)(F)CN=C32)cc1` (centres undefined), 6.8; with `NC1=NC(c2ccc(OC(F)F)cc2)(c2cccc(-c3cncnc3)c2)C2=NCC(F)(F)CN12` (centres undefined), 6.1.

Compound `COc1ccc(F)c(-c2cccc(C3(c4ccncc4)N=C(N)N4CC(F)(F)CN=C43)c2)c1` (centres undefined) had a pKa in data set [1] of 5.9. In data set [1], `NC1=NC(c2ccc(OC(F)F)cc2)(c2cccc(OCCCF)c2)C2=NCC(F)(F)CN12` (centres undefined) gave a pKa of 6.5. On to `NC1=N[C@](c2ccc(OC(F)F)cc2)(c2cccc(OCCCF)c2)C2=NCC(F)(F)CN12`, for which the Kp at […] in data set [2] amounted to 0.18; in data set [3] it was 2.34. Further, the concentration at […] in data set [4] turned out to be 4 µM.
